Values after ≈ are worked out from the molar mass of the structure shown.

By half-life is commonly meant how long it takes for the measured level to halve. In general, solubility refers to how much of the substance goes into solution per volume. For orientation: Cmax means the peak of the concentration-time curve. Broadly, the AUC is concentration integrated over time. Broadly, the Vss is a proportionality between amount in the body and measured concentration, not a real space.

Data set [1] in a line: Half-life in rat plasma. The class given is ADME, organism-based.
Data set [2] in a line: Solubility was measured in saline at 25 degree C. The class given is physicochemical.
For data set [3], the system named is Rattus norvegicus. The data set is described as follows: (§1) Circulatory half life measured after intravenous bolus administration of 50 mg/kg of compound to rats. Also noted: dose 50 mg/kg, route intravenous. The settings on record: in vivo. The class given is ADME, organism-based.
Data set [4] can be described thus: Maximum plasma concentration measured after intravenous bolus administration of 50 mg/kg of compound to rats. Also noted: dose 50 mg/kg, route intravenous. The class given is ADME, organism-based. The settings on record: rat.
Data set [5] can be described thus: Half-life in human plasma. The class given is ADME, cell-free.
The nature of data set [6]: Area under the curve measured after intravenous bolus administration of 50 mg/kg of compound to rats. The class given is ADME, organism-based. Also noted: dose 50 mg/kg, route intravenous. The settings on record: rat, in vivo.
Data set [7] is filed under the species Mus musculus. Description: Anti-microbial activity against Staphylococcus aureus measured as percent survival of mice after pre challenge. The class given is functional.
Data set [8] deals with Rattus norvegicus. The data set is described as follows: (§2) Clearance measured after intravenous bolus administration of 50 mg/kg of compound to rats. The class given is ADME, organism-based. Set-up: dose 50 mg/kg, route intravenous. The settings on record: in vivo.
Data set [9] relates to Rattus norvegicus. Description: (§3) Volume of distribution at a steady state measured after intravenous bolus administration of 50 mg/kg of compound to rats. The class given is ADME, organism-based. Also noted: dose 50 mg/kg, route intravenous. Conditions: in vivo.
The species entered for data set [10] is Mus musculus. Description: Anti-microbial activity against Staphylococcus aureus measured as percent survival of mice 1 hr post challenge. Also noted: concentration or dose not given beside the values. The class given is functional.
A short description of data set [11]: as §1. The class given is ADME, organism-based. Also noted: dose 50 mg/kg, route intravenous. The settings on record: rat, in vivo.
A short description of data set [12]: as §2. The class given is ADME, organism-based. Also noted: dose 50 mg/kg, route intravenous. Conditions: rat, in vivo.
The nature of data set [13]: as §3. The class given is ADME, organism-based. Also noted: dose 50 mg/kg, route intravenous. The settings on record: rat, in vivo, read-out: Vss.

In [1], `O=C(O)COCCO` came in with a half-life of over 1440 min. Moreover, the solubility in [2] was 128 mg/mL (≈ 1070 mM).
In [3], `CN[C@H](CC(C)C)C(=O)N[C@H]1C(=O)N[C@@H](CC(N)=O)C(=O)N[C@H]2C(=O)N[C@H]3C(=O)N[C@H](C(=O)N[C@H](C(=O)O)c4cc(O)cc(O)c4-c4cc3ccc4O)[C@H](O)c3ccc(c(Cl)c3)Oc3cc2cc(c3OC2OC(CO)C(O)C(O)C2OC2CC(C)(NC(=O)OCc3cc(C)c(OC(=O)C(C)NC(=O)COCCO)c(C)c3)C(O)C(C)O2)Oc2ccc(cc2Cl)[C@H]1O` (some centres undefined) yielded a T1/2 of 4.09 h. In data set [4], this molecule registered a peak concentration (Cmax) of 47.9 µg/mL. The half-life in data set [5] was over 1440 min; in [1], 960 min. In addition, the AUC in data set [6] was found to be 282 µg·h/mL. Besides, the results for the Survival in [7] and in [10] were 80% and 100%, respectively. In addition, the concentration in solution in data set [2] (solubility) came to 122 mg/mL (≈ 67.8 mM). Moreover, the CL in data set [8] came to 178.3 mL/h/kg. In [9], this molecule yielded a volume of distribution (Vss) of 2640.8 mL/kg.
Consider `CN[C@H](CC(C)C)C(=O)N[C@H]1C(=O)N[C@@H](CC(N)=O)C(=O)N[C@H]2C(=O)N[C@H]3C(=O)N[C@H](C(=O)N[C@H](C(=O)O)c4cc(O)cc(O)c4-c4cc3ccc4O)[C@H](O)c3ccc(c(Cl)c3)Oc3cc2cc(c3OC2OC(CO)C(O)C(O)C2OC2CC(C)(NC(=O)OCc3cc(C)c(OC(=O)COCCO)c(C)c3)C(O)C(C)O2)Oc2ccc(cc2Cl)[C@H]1O` (some centres undefined), for which the half-life was 396 min in [5] and 120 min in [1]. Also, the solubility in [2] was 131 mg/mL (≈ 75.7 mM). The molecule further showed a Survival in data set [10] of 100%.
Consider `CN[C@H](CC(C)C)C(=O)N[C@H]1C(=O)N[C@@H](CC(N)=O)C(=O)N[C@H]2C(=O)N[C@H]3C(=O)N[C@H](C(=O)N[C@H](C(=O)O)c4cc(O)cc(O)c4-c4cc3ccc4O)[C@H](O)c3ccc(c(Cl)c3)Oc3cc2cc(c3OC2OC(CO)C(O)C(O)C2OC2CC(C)(NC(=O)OCc3cc(C)c(OC(=O)NCCOCCO)c(C)c3)C(O)C(C)O2)Oc2ccc(cc2Cl)[C@H]1O` (some centres undefined), for which the half-life in data set [11] is 547 min; in data set [5] it was over 1440 min; in [1] it was over 1440 min. The molecule also registered a maximum concentration (Cmax) in data set [4] of 54.6 µg/mL. Moreover, the exposure (AUC) in data set [6] came out at 717 µg·h/mL. The molecule further returned a solubility in data set [2] of 141 mg/mL (≈ 80.2 mM). The clearance in data set [12] (read-out: CL (converted)) was 1.17 mL/min/kg. Further, the Vd in data set [13] turned out to be 1.65 L/kg. The molecule further gave a Survival in [10] of 90%.
Regarding `CN[C@H](CC(C)C)C(=O)N[C@H]1C(=O)N[C@@H](CC(N)=O)C(=O)N[C@H]2C(=O)N[C@H]3C(=O)N[C@H](C(=O)N[C@H](C(=O)O)c4cc(O)cc(O)c4-c4cc3ccc4O)[C@H](O)c3ccc(c(Cl)c3)Oc3cc2cc(c3OC2OC(CO)C(O)C(O)C2OC2CC(C)(NC(=O)OCc3cc(C)c(OC(=O)CNC(=O)COCCO)c(C)c3)C(O)C(C)O2)Oc2ccc(cc2Cl)[C@H]1O` (some centres undefined), the half-life in data set [11] is 629 min; in [5] it was 1620 min; in [1] it was 1140 min. This molecule yielded a Cmax in data set [4] of 25.5 µg/mL. In data set [6], the exposure (AUC) was 386 µg·h/mL. Moreover, the solubility in [2] was determined as 145 mg/mL (≈ 81.2 mM). In addition, the clearance in data set [12] (read-out: CL (converted)) was 2.19 mL/min/kg. Moreover, the Vd in data set [13] amounted to 2.72 L/kg. Also, the Survival in [10] came out at 100%.
`CN[C@H](CC(C)C)C(=O)N[C@H]1C(=O)N[C@@H](CC(N)=O)C(=O)N[C@H]2C(=O)N[C@H]3C(=O)N[C@H](C(=O)N[C@H](C(=O)O)c4cc(O)cc(O)c4-c4cc3ccc4O)[C@H](O)c3ccc(c(Cl)c3)Oc3cc2cc(c3OC2OC(CO)C(O)C(O)C2OC2CC(C)(NC(=O)OCc3cc(C)c(OC(=O)NCCOCCOCCNC(=O)CNC(=O)CC(NC(=O)COCCO)C(=O)NCC(=O)NCCOCCOCCNC(=O)Oc4c(C)cc(COC(=O)NC5(C)CC(OC6C(Oc7c8cc9cc7Oc7ccc(cc7Cl)[C@@H](O)[C@@H](NC(=O)[C@@H](CC(C)C)NC)C(=O)N[C@@H](CC(N)=O)C(=O)N[C@H]9C(=O)N[C@H]7C(=O)N[C@H](C(=O)N[C@H](C(=O)O)c9cc(O)cc(O)c9-c9cc7ccc9O)[C@H](O)c7ccc(c(Cl)c7)O8)OC(CO)C(O)C6O)OC(C)C5O)cc4C)c(C)c3)C(O)C(C)O2)Oc2ccc(cc2Cl)[C@H]1O` (some centres undefined): the T1/2 in [3] was found to be 14.2 h. This molecule returned a Cmax in [4] of 107 µg/mL. In addition, the half-life in data set [5] was over 1440 min; in [1], 2160 min. In data set [6], the AUC was found to be 2180 µg·h/mL. The same molecule came in with a solubility in data set [2] of 141 mg/mL (≈ 36 mM). The molecule further registered a CL in data set [8] of 23 mL/h/kg. In data set [9], this molecule had a Vss of 1341 mL/kg. Further, in [10], the Survival is listed as 100%.
`CN[C@H](CC(C)C)C(=O)N[C@H]1C(=O)N[C@@H](CC(N)=O)C(=O)N[C@H]2C(=O)N[C@H]3C(=O)N[C@H](C(=O)N[C@H](C(=O)O)c4cc(O)cc(O)c4-c4cc3ccc4O)[C@H](O)c3ccc(c(Cl)c3)Oc3cc2cc(c3OC2OC(CO)C(O)C(O)C2OC2CC(C)(NC(=O)OCc3cc(C)c(OC(=O)CNC(=O)CC(NC(=O)COCCO)C(=O)NCC(=O)Oc4c(C)cc(COC(=O)NC5(C)CC(OC6C(Oc7c8cc9cc7Oc7ccc(cc7Cl)[C@@H](O)[C@@H](NC(=O)[C@@H](CC(C)C)NC)C(=O)N[C@@H](CC(N)=O)C(=O)N[C@H]9C(=O)N[C@H]7C(=O)N[C@H](C(=O)N[C@H](C(=O)O)c9cc(O)cc(O)c9-c9cc7ccc9O)[C@H](O)c7ccc(c(Cl)c7)O8)OC(CO)C(O)C6O)OC(C)C5O)cc4C)c(C)c3)C(O)C(C)O2)Oc2ccc(cc2Cl)[C@H]1O` (some centres undefined) came in with a T1/2 in data set [3] of 12.37 h. This molecule also had a Cmax in data set [4] of 29.3 µg/mL. Besides, the half-life was over 1440 min in data set [5] and 1200 min in data set [1]. For the same molecule, the exposure (AUC) in data set [6] amounted to 513 µg·h/mL. Besides, the solubility in data set [2] amounted to 120 mg/mL (≈ 33.6 mM). The same molecule gave a CL in [8] of 97.8 mL/h/kg. In data set [9], the Vss amounted to 3598 mL/kg. Moreover, the Survival in [10] is recorded as 100%.
Consider `CN[C@H](CC(C)C)C(=O)N[C@H]1C(=O)N[C@@H](CC(N)=O)C(=O)N[C@H]2C(=O)N[C@H]3C(=O)N[C@H](C(=O)N[C@H](C(=O)O)c4cc(O)cc(O)c4-c4cc3ccc4O)[C@H](O)c3ccc(c(Cl)c3)Oc3cc2cc(c3O[C@@H]2O[C@H](CO)[C@@H](O)[C@H](O)[C@H]2O[C@H]2C[C@](C)(N)[C@H](O)[C@H](C)O2)Oc2ccc(cc2Cl)[C@H]1O` [VANCOMYCIN], for which the half-life in [11] was 20.4 min. Further, in [4], the Cmax was determined as 162 µg/mL. Besides, the AUC in [6] turned out to be 78.8 µg·h/mL. Moreover, the Survival in data set [7] amounted to 0%; in data set [10], 100%. Further, in data set [12], the clearance was 10.7 mL/min/kg. Further, the Vd in data set [13] turned out to be 0.309 L/kg.

The values are drawn from ChEMBL document CHEMBL1145985, “Poly(ethylene glycol) transport forms of vancomycin: a long-lived continuous release delivery system” (J Med Chem, 2003).
